Laboratory results taken from US9365566B2 (Takeda Pharmaceutical Company Limited, priority 2012, dated 2016).

Molecular target: T1, human BTK (Homo sapiens, UniProt Q06187)
T1 construct: GST (Glutathione-S-Transferase) (cleaved yes); made in house; host or cells: Spodoptera frugiperda Sf9 cells (baculovirus, Bac-to-Bac)
Assay: BTK inhibition assay: BTK-mediated phosphorylation of FAM-labeled substrate 5-FAM-EEPLYWSFPAKKK-NH2 (Caliper LC-3000)
Format: biochemical
Conditions: pIC50 = -log(IC50), IC50 molar; residues 382 to 659 of human BTK; incubated at room temperature for 60 minutes; larger values represent higher potency

T1 sequence (Q06187 382-659): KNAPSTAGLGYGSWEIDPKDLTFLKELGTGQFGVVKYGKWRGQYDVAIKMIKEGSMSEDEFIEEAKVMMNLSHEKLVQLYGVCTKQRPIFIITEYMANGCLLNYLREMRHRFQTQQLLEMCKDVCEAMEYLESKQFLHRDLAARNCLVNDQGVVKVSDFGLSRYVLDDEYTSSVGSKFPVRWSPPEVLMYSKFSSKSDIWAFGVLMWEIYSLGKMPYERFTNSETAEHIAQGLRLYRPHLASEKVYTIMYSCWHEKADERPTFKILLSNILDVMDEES

| SMILES | IC50 [nM] |
| --- | --- |
| Cc1ccc2c(N)c(C(N)=O)nnc2c1-c1ccc2c(c1)CNC2=O [Example 124, 4-amino-7-methyl-8-(1-oxoisoindolin-5-yl)cinnoline-3-carboxamide] | 6.31 |
| NC(=O)c1nnc2c(-c3ccc4c(c3)CNC4=O)ccc(F)c2c1N [Example 125, 4-amino-5-fluoro-8-(1-oxoisoindolin-5-yl)cinnoline-3-carboxamide] | 39.8 |
| Cc1cc(F)c2c(N)c(C(N)=O)nnc2c1-c1ccc2c(c1)CNC2=O [Example 126, 4-amino-5-fluoro-7-methyl-8-(1-oxoisoindolin-5-yl)cinnoline-3-carboxamide] | 12.6 |
| CC(C)(O)CCN1Cc2cc(-c3cccc4c(N)c(C(N)=O)nnc34)ccc2C1=O [Example 127, 4-amino-8-(2-(3-hydroxy-3-methylbutyl)-1-oxoisoindolin-5-yl)cinnoline-3-carboxamide] | 25.1 |
| Cc1ccc2c(N)c(C(N)=O)nnc2c1-c1ccc2c(c1)CN(CCC(C)(C)O)C2=O [Example 128, 4-amino-8-(2-(3-hydroxy-3-methylbutyl)-1-oxoisoindolin-5-yl)-7-methylcinnoline-3-carboxamide] | 7.94 |
| CCc1ccc2c(N)c(C(N)=O)nnc2c1-c1ccc2c(c1)CNC2=O [Example 129, 4-amino-7-ethyl-8-(1-oxoisoindolin-5-yl)cinnoline-3-carboxamide] | 5.01 |
| N#Cc1nc2ccc(-c3cccc4c(N)c(C(N)=O)nnc34)cc2[nH]1 [Example 130, 4-amino-8-(2-cyano-1H-benzo[d]imidazol-6-yl)cinnoline-3-carboxamide] | 200 |
| CCn1cnc2ccc(-c3c(C)ccc4c(N)c(C(N)=O)nnc34)cc21 [Example 131, 4-amino-8-(1-ethyl-1H-benzo[d]imidazol-6-yl)-7-methylcinnoline-3-carboxamide] | 100 |
| CCn1cnc2cc(-c3c(C)ccc4c(N)c(C(N)=O)nnc34)ccc21 [Example 132, 4-amino-8-(1-ethyl-1H-benzo[d]imidazol-5-yl)-7-methylcinnoline-3-carboxamide] | 1260 |
| Cc1ccc2c(N)c(C(N)=O)nnc2c1-c1ccc2ncn(CCC#N)c2c1 [Example 133, 4-amino-8-(1-(2-cyanoethyl)-1H-benzo[d]imidazol-6-yl)-7-methylcinnoline-3-carboxamide] | 501 |

Continued, values first:

| IC50 [nM] | SMILES |
| --- | --- |
| 794 | Cc1ccc2c(N)c(C(N)=O)nnc2c1-c1ccc2ncn(CCO)c2c1 [Example 134, 4-amino-8-(1-(2-hydroxyethyl)-1H-benzo[d]imidazol-6-yl)-7-methylcinnoline-3-carboxamide] |
| 126 | N#Cc1ccc2c(N)c(C(N)=O)nnc2c1-c1ccc2cn[nH]c2c1 [Example 135, 4-amino-7-cyano-8-(1H-indazol-6-yl)cinnoline-3-carboxamide] |
| 10 | Cc1cc2cn[nH]c2cc1-c1cc(F)cc2c(N)c(C(N)=O)nnc12 [Example 136, 4-amino-6-fluoro-8-(5-methyl-1H-indazol-6-yl)cinnoline-3-carboxamide] |
| 7.94 | Cc1cc2cn[nH]c2cc1-c1cc(N2CCOCC2)cc2c(N)c(C(N)=O)nnc12 [Example 137, 4-amino-8-(5-methyl-1H-indazol-6-yl)-6-morpholinocinnoline-3-carboxamide] |
| 12.6 | Cc1cc2cn[nH]c2cc1-c1cc(N2CCC(O)CC2)cc2c(N)c(C(N)=O)nnc12 [Example 138, 4-amino-6-(4-hydroxypiperidin-1-yl)-8-(5-methyl-1H-indazol-6-yl)cinnoline-3-carboxamide] |
